Measurements published in ChEMBL document CHEMBL1201862, “PubChem BioAssay data set” (2004).
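Compound exposure: 48 hours, 5 concentrations, 96-well plates. Here, GI50 denotes the concentration required for 50% inhibition of growth.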 Activity calls are given as the source filed them. Cut-off read from the data, not from the text of the source: active = GI50 up to about 1.1 µM and inactive = higher.

How the values were obtained:
Test in all cases: inhibition of tumour cell growth, NCI panel, 48 h
UACC-62 = test system: UACC-62
UACC-257 = test system: UACC-257
IGROV-1 = test system: IGROV-1
OVCAR-4 = test system: OVCAR-4
OVCAR-3 = test system: OVCAR-3
SK-MEL-28 = test system: SK-MEL-28
HCT-15 = test system: HCT-15
OVCAR-8 = test system: OVCAR-8
HOP-92 = test system: HOP-92
786-0 = test system: 786-0
EKVX = test system: EKVX
OVCAR-5 = test system: OVCAR-5
MDA-MB-231 = test system: MDA-MB-231
Hs-578T = test system: Hs-578T
SK-OV-3 = test system: SK-OV-3
MCF7 = test system: MCF7
KM12 = test system: KM12
HCT-116 = test system: HCT-116
HOP-62 = test system: HOP-62
CAKI-1 = test system: CAKI-1

Measured: GI50

NC(=S)N/N=C1\CCCCC1C(O)(C(F)(F)Cl)C(F)(F)Cl (configuration not stated)
> 10 µM: HCT-15
inactive: UACC-62 > 10 µM | UACC-257 > 10 µM | IGROV-1 > 10 µM | OVCAR-4 > 10 µM | OVCAR-3 > 10 µM | SK-MEL-28 > 10 µM | OVCAR-8 > 10 µM | HOP-92 > 10 µM | 786-0 > 10 µM | EKVX > 10 µM | OVCAR-5 > 10 µM | MDA-MB-231 > 10 µM | Hs-578T > 10 µM | SK-OV-3 > 10 µM | MCF7 > 10 µM | KM12 > 10 µM | HCT-116 > 10 µM | HOP-62 > 10 µM

Cc1cc2c(c3oc(C4(C)OC4C4OC4C)cc(=O)c13)C(=O)c1c(O)c(C3CC(C)(N(C)C)C(O)C(C)O3)cc(C3CC(N(C)C)C(O)C(C)O3)c1C2=O (configuration not stated)
active: UACC-62 6.43e-05 µM | UACC-257 0.000116 µM | IGROV-1 0.000951 µM | OVCAR-3 0.000191 µM | OVCAR-8 0.0025 µM | HOP-92 0.000733 µM | 786-0 0.000129 µM | OVCAR-5 8.95e-05 µM | MDA-MB-231 0.000227 µM | Hs-578T 0.000349 µM | CAKI-1 5.46e-05 µM | SK-OV-3 0.000215 µM | MCF7 2.49e-05 µM | HCT-116 1.54e-05 µM | HOP-62 5.79e-05 µM

Cc1cccc(C(C)(C)C)c1NC(=O)C(C#N)C1=C(Cl)C(=O)c2ccccc2C1=O (configuration not stated)
inactive: UACC-62 18.2 µM | UACC-257 15.6 µM | IGROV-1 18.4 µM | OVCAR-4 15.4 µM | OVCAR-3 15.7 µM | SK-MEL-28 16.9 µM | OVCAR-8 18.2 µM | HOP-92 3.93 µM | 786-0 16.2 µM | EKVX 12.5 µM | OVCAR-5 17.9 µM | MDA-MB-231 14 µM | Hs-578T 21.1 µM | CAKI-1 16.7 µM | SK-OV-3 15.8 µM | MCF7 15.8 µM | KM12 16.3 µM | HCT-116 14.1 µM | HOP-62 17.7 µM

Cc1ccccc1/N=C/N(C)C
inactive: UACC-62 41.9 µM | UACC-257 22 µM | IGROV-1 37.3 µM | OVCAR-4 37.5 µM | OVCAR-3 17.7 µM | SK-MEL-28 75.3 µM | OVCAR-8 33.9 µM | HOP-92 48.3 µM | 786-0 70.3 µM | EKVX 35.3 µM | OVCAR-5 72.8 µM | MDA-MB-231 39 µM | Hs-578T 44.7 µM | CAKI-1 > 100 µM | SK-OV-3 > 100 µM | MCF7 31.5 µM | HCT-116 33.8 µM | HOP-62 58.6 µM
> 100 µM: HCT-15

COc1ccc(/C=C/C2=NN(c3cccc(S(=O)(=O)O)c3)C3(C2)SCC(=O)N3c2nc3ccccc3s2)cc1 (configuration not stated)
inactive: UACC-62 54.3 µM | UACC-257 83.8 µM | IGROV-1 30.8 µM | OVCAR-4 53.1 µM | SK-MEL-28 > 100 µM | OVCAR-8 60.7 µM | HOP-92 68.1 µM | 786-0 76.7 µM | EKVX 64.7 µM | OVCAR-5 > 100 µM | MDA-MB-231 67 µM | Hs-578T > 100 µM | CAKI-1 > 100 µM | MCF7 46.8 µM | KM12 > 100 µM | HCT-116 > 100 µM
85.9 µM: HCT-15

O=C1NI(C#Cc2ccccc2)c2ccccc21
inactive: UACC-62 > 100 µM | UACC-257 > 100 µM | IGROV-1 > 100 µM | OVCAR-4 53 µM | OVCAR-3 > 100 µM | SK-MEL-28 > 100 µM | OVCAR-8 > 100 µM | 786-0 > 100 µM | MDA-MB-231 > 100 µM | Hs-578T > 100 µM | CAKI-1 > 100 µM | SK-OV-3 1.32 µM | MCF7 22.2 µM | KM12 95.1 µM | HCT-116 > 100 µM | HOP-62 > 100 µM
> 100 µM: HCT-15

O=[N+]([O-])c1ccc(Cl)cc1N/N=C/c1cccs1
inactive: UACC-62 > 100 µM | UACC-257 > 100 µM | IGROV-1 > 100 µM | OVCAR-4 > 100 µM | OVCAR-3 > 100 µM | SK-MEL-28 > 100 µM | OVCAR-8 > 100 µM | 786-0 > 100 µM | EKVX > 100 µM | MDA-MB-231 > 100 µM | Hs-578T 72.4 µM | CAKI-1 > 100 µM | SK-OV-3 > 100 µM | MCF7 9.95 µM | KM12 > 100 µM | HCT-116 > 100 µM | HOP-62 > 100 µM
> 100 µM: HCT-15

CCOC1Oc2ccccc2-c2nc(SC)ncc21 (configuration not stated)
inactive: UACC-62 75.5 µM | UACC-257 > 100 µM | IGROV-1 35.2 µM | OVCAR-4 > 100 µM | OVCAR-3 > 100 µM | OVCAR-8 > 100 µM | HOP-92 29.2 µM | 786-0 > 100 µM | EKVX 36 µM | OVCAR-5 > 100 µM | MDA-MB-231 62.8 µM | Hs-578T 79.8 µM | CAKI-1 > 100 µM | SK-OV-3 > 100 µM | MCF7 66.1 µM | KM12 > 100 µM | HCT-116 83.2 µM
79.3 µM: HCT-15
